The values below come from a melting point compilation (Tetko et al.; mined from patent text by program, amines drawn as free bases though some values may be those of a salt).

The structures appear in SMILES notation. Bounds are passed on as bounds.

Usually melting point stands for the temperature, or range, at which the solid turns liquid. The compound `COC(=O)c1cc(=O)c2oc3ccc(Cl)cc3c(=O)c2n1C` returned a melting point of 276 to 278 °C.
In the case of `CC1(C)N=C(Oc2ccccn2)c2cc(F)ccc2O1` it was 114 °C; in that of `Cc1cc(O)c(C)c2sc(N)nc12`, 199 to 201 °C; in that of `CCSc1c(N)cnc2cc(Cl)ccc12`, 105 to 106 °C.
In the case of `Cc1cc(F)ccc1-c1nc(NCC(F)(F)F)nc2c1ccc(=O)n2-c1ccccc1F` it was 187 to 188 °C; in that of `CC(=O)Nc1cc(O)c(C(=O)CCCCCl)cc1Cl`, 126 to 128 °C.
In the case of `CCOC(=O)C(=O)Nc1c([N+](=O)[O-])cc(Cl)cc1C(F)(F)F` it was 100 to 101 °C; in that of `COc1ccc(NC(=O)c2cc(-c3ccc(F)cc3F)ccc2O)cc1OC`, 186 to 187 °C.
On to `Oc1ccc(-c2ncc3ncc(-c4ccoc4)cc3n2)cc1`, for which the melting point was > 268 °C.
On to `CCCCc1nc(C(C)O)c(C(=O)O)n1Cc1ccc(-c2ccccc2C(=O)O)cc1` (stereo unspecified), for which the melting point lay in the range of 168 to 170 °C.
With `CC(=O)Nc1ccc(OCCCBr)cc1`, the melting point amounted to 120 °C.
With `CC(=O)n1ccc(-c2c(-c3ccncc3)c(-c3ccc(F)cc3)nn2CCO)cc1=O` the figure was 220 to 221 °C.
In the case of `CN(C)CC1CNc2cc(O)ccc2C1` (stereo unspecified) it was 151 to 152 °C; in that of `CC(=O)SCC(=O)Nc1ccc(C(=O)O)cc1`, 233 to 234 °C.
In the case of `COC(=O)C1C=CCN2C(=O)C(C)(CCOS(C)(=O)=O)C(=O)N12` (stereo unspecified) it was 104 to 105 °C.
`OC(CCN1CC=C(c2ccc(Cl)cc2)CC1)c1ccc(Cc2ccccn2)cc1` (stereo unspecified) displayed a melting point of 129 to 131 °C.
Turning to `CN1CCN(C(=O)COc2cccc(CCNS(=O)(=O)c3ccc(Cl)cc3)c2)CC1`, the melting point fell in the range of 139 to 141 °C.
With `CC(Br)C(=O)NOCc1ccccc1` (stereo unspecified) the figure was 75.3 to 77.4 °C; with `CC(C)c1ccccc1N1CCS/C1=N/N=C\c1ccc(-c2ncn(-c3ccc(OC(F)(F)F)cc3)n2)cc1`, 193 to 196 °C.
With `O=C(O)Cc1cccc(Cc2nc3c(F)c(F)ccc3s2)c1` the figure was 154 to 155 °C.
Regarding `O=C(O)Cc1c(C(=O)c2ccc(Cl)cc2)[nH]c2cc(Cl)c(F)cc12`, the melting point was 215 to 220 °C.
In the case of `Cc1ccc(S(=O)(=O)OCCCCn2c3c(c4ccccc4c2=O)C(=O)c2ccccc2-3)cc1` it was 160 to 163 °C; in that of `COC(=O)c1cc(Br)ncc1F`, 43 to 46 °C.
The compound `CC(=O)NC[C@H]1CN(c2cc(F)c(N3CCN(C(=O)CO)CC3)c(F)c2)C(=O)O1` gave a melting point of 160 to 162 °C.
With `Cc1ccc(S(=O)(=O)N(C)SSN(C)S(=O)(=O)c2ccc(C)cc2)cc1` the figure was 90 to 94 °C; with `CCCCCCCCCCCn1ncnc1NC(=O)Nc1c(C(C)C)cccc1C(C)C`, 146 to 148 °C; with `C[C@H](N)C(=O)N(C(=O)OCc1ccccc1)c1ccccc1`, 161 to 163 °C.
With `CC(C)N(C(C)C)S(=O)(=O)N[C@@H](Cc1ccc(NC(=O)c2c(Cl)cncc2Cl)cc1)C(=O)O` the figure was 151 °C; with `CCOC(=O)c1ccc(/C=C(\C)c2ccc(OC)c(C(C)(C)C)c2)cc1`, 71.5 °C.
As for `O=c1c2ccc(O)cc2oc2oc3cc(O)ccc3c12`, the melting point was > 300 °C.
In the case of `CCn1cc(C(=O)O)c2ccc(Cl)cc21` it was 225 to 227 °C; in that of `Cc1cc2c(c(C)c1C)C(=O)C(C)(C)O2`, 77 to 78 °C; in that of `COc1ccc(NC(=O)c2cnc3ccccc3c2O)cc1`, > 260 °C.
In the case of `CC(C)N1CC(C(C(N)=O)(c2ccccc2)c2ccccn2)C1` (stereo unspecified) it was 140 to 141 °C.
With `COc1nc(SC)cnc1NS(=O)(=O)c1cccc(Cl)c1Cl` the figure was 141 to 142 °C; with `CC1Oc2ccc(Cn3ccnc3)cc2NC1=O` (stereo unspecified), 219 to 222 °C; with `Oc1ccc(C2COc3c(ccc(O)c3O)C2)cc1` (stereo unspecified), 225 to 226 °C.
Compound `CC(C)(C)OC(=O)N1CCn2c(c(C(N)=O)c(Br)c2C2CC2)C1` registered a melting point of 162 °C.
Compound `CCCCN1C(=O)NC(=Cc2ccc(C=O)cc2)C1=O` gave a melting point of 180 °C.
With `CC(C)SC1=C(O)CC(C)(C)CC1=O` the figure was 74.5 to 79.5 °C; with `CCOC(=O)c1c(C(C)C)nc(-c2ccccc2)c(-c2ccccc2)c1-c1ccc(F)cc1`, 135 to 136 °C.
In turn, `CS(=O)C1(c2ccncc2)CNN=C1c1ccc(F)cc1` (stereo unspecified) displayed a melting point of 263 °C.
In the case of `Cc1cc(Cl)cc(C(=O)c2ccc(S(C)(=O)=O)cc2Cl)c1O` it was 175 to 180 °C.
In the case of `O=C(Nc1cnc(-c2ccccc2)nc1Cl)OCc1ccccc1` it was 120 to 121 °C.
With `COc1nc(Cc2nn(C)c(C)c2NS(=O)(=O)C(F)(F)F)nc(OC)n1` the figure was 145 °C; with `COc1cc(S(C)(=O)=O)ccc1-c1nc(C)c(-c2cccnc2)[nH]1`, 115 to 118 °C.
Take `O=C(OCc1ccccc1)c1ccc2cc(OCc3ccccc3)ccc2c1`: the melting point was 97 to 98 °C.
With `C(=Cc1ccc2ccccc2c1)c1ccccc1` the figure was 143 to 145 °C; with `O=C(CBr)c1cccn1S(=O)(=O)c1ccccc1`, 89 to 91 °C; with `COc1cccc(C(=O)CCCN2CCC(O)(c3ccc(Cl)cc3)CC2)c1`, 127 to 129 °C.
As for `COc1cc(NC(C)=O)c2c3c(c4ccccc4nc13)C=CN2`, the melting point was in the range of 128 to 132 °C.
With `Nc1c(Cl)cc(C(=O)NC2CCN(CC3CCCO3)CC2)c2c1CCO2` (stereo unspecified) the figure was 175 °C; with `O=c1ccc2c(-c3cccc([N+](=O)[O-])c3)nccc2[nH]1`, > 300 °C.
In the case of `COc1ccc(Cn2cccc2C(=O)CC(=O)C(=O)O)cc1` it was 167 to 168 °C.
With `COc1ccc(-n2c(-c3ccc(N(C)C)cc3)nnc2C(C)O)cc1` (stereo unspecified) the figure was 190 °C; with `CCCn1c(=Nc2ccc(C(=O)OCC)cc2)sc2ncccc2c1=O`, 115 to 117 °C.
The compound `O=[N+]([O-])c1cc(C(F)(F)F)ccc1NCCCN1CCN(C(c2ccccc2)c2ccccc2)CC1` registered a melting point of 114 °C.
With `Oc1nsc(SCc2ccc(Cl)cc2)n1` the figure was 138 °C.
In the case of `CCCC#Cc1cnc(-c2ccc(F)cc2)nc1` it was 51 °C; in that of `COc1cc(C(=O)O)cc(OC)c1Cc1cnc(N)nc1N`, 264 to 267 °C.
In the case of `Oc1cccc(OCc2ccc3ccccc3n2)c1` it was 151 to 153 °C; in that of `O=[N+]([O-])c1ccc(C(O)c2ccccn2)c(Cl)c1` (stereo unspecified), 124 to 127 °C.
`CCCCCCCCCCC(O)C(O)CNCc1ccccc1` (stereo unspecified) had a melting point of 52.6 to 53 °C.
With `NS(=O)(=O)c1cc(C(=O)O)cc(NCc2ccc3c(c2)OCO3)c1Oc1ccccc1` the figure was 229 to 230 °C; with `Clc1cccc(Oc2ccc(N3CCNCC3)nc2)c1`, 70 to 73 °C.
Compound `C/C=C/c1cccc2c(=O)c(C)c(C(N)=O)oc12` came in with a melting point of 243 to 245 °C.
In the case of `CC(C)(C)OC(=O)C(=[N+]=[N-])C(=O)C(SCc1ccccc1)C1CC(=O)N1` (stereo unspecified) it was 119 °C; in that of `O=c1[nH]cc(Oc2ccccc2)cc1-c1csc(-c2ccncc2)n1`, 243 to 245 °C; in that of `CC12CCC3c4ccc(C(=O)O)cc4CCC3C1CCC2C(=O)c1ccc(F)cc1` (stereo unspecified), 251 to 254 °C.
Take `COC(=O)CCc1ccc(-n2ccn(-c3ccc(C(=N)NC(=O)OC)cc3)c2=O)cc1`: the melting point is > 260 °C.
In the case of `Nc1ccccc1C(=O)OCCN1CCN(c2cccc(Cl)c2)CC1`, the melting point amounted to 76 °C.
In the case of `O=C1c2ccccc2C(=O)N1CC1CC(=O)N(Cc2ccccc2)c2ccccc2N1` (stereo unspecified) it was 127 to 130 °C; in that of `COc1cc(NC(C)=O)c(Cl)cc1C(=O)N=[N+]=[N-]`, 135 to 140 °C.
`COc1c(N2CC[C@@H](C3(NCCO)CC3)C2)c(F)cc2c(=O)c(C(=O)O)cn([C@@H]3C[C@@H]3F)c12` yielded a melting point of 153 to 155 °C.
With `O=C(Nc1ccccc1)NN1CCc2[nH]c(=O)n3nc(-c4ccccc4F)nc3c2C1` the figure was 291 to 293 °C; with `CCCCCCCCCCCC1OC1CO` (stereo unspecified), 68 to 70 °C; with `CCCCC(=O)Nc1nc2ccc(Cl)cc2nc1NC(=O)CCCC`, 171 to 173 °C.
With `COc1ccc2c(c1OC)CC[C@@H]1NC(=O)CC[C@H]21` (relative stereo) the figure was 243 to 245 °C; with `O=C(Nc1ccc(C(CC2CCCC2)C(=O)Nc2nccs2)cc1)c1cccnc1` (stereo unspecified), 240 to 242 °C; with `O=C(OC1CCN(Cc2cccc([N+](=O)[O-])c2)CC1)c1ccccc1`, 54 to 55 °C.
With `COc1ccc(Cl)cc1-c1cccc2c1OC(CN)C2` (stereo unspecified) the figure was 149 to 152 °C; with `Clc1ccc(OC2CCN(CCc3c[nH]c4ccccc34)CC2)cc1`, 132 to 133 °C; with `CCn1nc(C(F)(F)F)cc1NC(=O)c1c(C)cccc1C(=O)NC(C)C`, 223 to 226 °C.
`CCCN(CCC)Cc1nc(-c2ncn3c2CN(C)C(=O)c2sccc2-3)no1` gave a melting point of 128 to 130 °C.
In the case of `CC(=O)SCC(CC(=O)c1ccc(Br)cc1)C(=O)OCc1ccccc1` (stereo unspecified) it was 79 to 80 °C.
In the case of `O=C1CCc2cc(NCC(=O)N3CCC(Cc4ccccc4)CC3)ccc2N1` it was 184 to 187 °C; in that of `COc1ccc2c(c1)C(C)(C)Oc1c-2ccc(O)c1C(C)=O`, 103 to 104 °C.
With `CCOC(=O)c1n[nH]c2c(=O)[nH]c3cc(Cl)ccc3c(=O)c12` the figure was 290 °C; with `N#Cc1csc(Oc2ccc(-c3ccc(Oc4scc(C#N)c4C#N)cc3)cc2)c1C#N`, 262 to 264 °C; with `CCCC1=C(C#N)C(c2ccccc2Cl)c2c(n[nH]c2C(C)C)N1` (stereo unspecified), > 270 °C.
`Cc1cc(OCC(=O)Nc2cccc(C(=O)O)c2)ccc1C(C)C` yielded a melting point of 188 to 189 °C.
